The assay has as its target Calcium/calmodulin-dependent protein kinase type II subunit delta (Homo sapiens, UniProt Q13557). Kind of assay: Inhibition Assay. As for the experimental part: Compounds were added in 5 uL volume to wells in UV transparent 96-well plates ( area well size). The final compound concentrations tested ranged from 0.5 nM to 10 uM). Assays were performed in duplicate. CaMKIIδ is added to at a final concentration of 16 nM to a mixture containing 100 mM Tris (pH 7.5), 150 mM KCl, 0.27 mM EGTA, 1.3 mM PEP, 0.2 mg/ml AC3, 6.9% (v/v) PK/LDH mixture (Sigma P0294), 0.38 mM NADH and kept on ice. 72 uL of the enzyme mixture was added to the wells containing compounds and the plate was shaken briefly and kept on ice. The assay was initiated by adding 23 uL of a mixture containing 100 mM Tris (pH 7.5), 150 mM KCl, 1.7 mM CaCl2, 48 mM MgCl2, 0.35 mM ATP and 6.7 ug/mL calmodulin. The rate of ADP released was measured as the rate of absorbance decrease at […] at 25° C.

Some results are limits rather than exact numbers.

Chain of Calcium/calmodulin-dependent protein kinase type II subunit delta (Q13557 whole entry): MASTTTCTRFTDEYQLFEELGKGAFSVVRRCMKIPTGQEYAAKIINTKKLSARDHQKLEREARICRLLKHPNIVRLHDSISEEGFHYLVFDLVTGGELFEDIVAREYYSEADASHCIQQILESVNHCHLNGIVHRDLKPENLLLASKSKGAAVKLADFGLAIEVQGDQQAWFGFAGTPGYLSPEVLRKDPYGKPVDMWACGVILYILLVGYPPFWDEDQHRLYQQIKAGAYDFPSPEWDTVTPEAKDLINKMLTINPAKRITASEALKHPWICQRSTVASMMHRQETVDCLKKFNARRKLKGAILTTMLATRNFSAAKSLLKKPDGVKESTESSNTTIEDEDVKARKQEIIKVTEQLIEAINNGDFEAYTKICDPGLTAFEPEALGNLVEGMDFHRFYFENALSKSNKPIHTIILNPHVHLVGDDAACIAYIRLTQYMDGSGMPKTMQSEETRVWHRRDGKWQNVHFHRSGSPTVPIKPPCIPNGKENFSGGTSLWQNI

As usually defined, the IC50 is the concentration at which inhibition is half-maximal. `NCCCNc1cccc(-c2ccnc3[nH]c4ccccc4c23)c1` [US10759792, Compound I-8]: the half-maximal inhibitory concentration (IC50) was less than 50 nM.

Turning to `Cc1ccc2c(c1)[nH]c1nccc(-c3cccc(NCCN)c3)c12` [US10759792, Compound I-11], the IC50 is less than 50 nM.

The record behind these values is BindingDB's records for patent US10759792 (The Johns Hopkins University, 2020).
